The text below walks through data of ChEMBL document CHEMBL5465560, “Selectivity Literature for EUbOPEN Chemogenomic Library” (2024).

For assay [1], the target named is Proto-oncogene tyrosine-protein kinase receptor Ret (Homo sapiens, UniProt P07949). The experiment in a line: (§1) Selectivity interaction (KinomeScan (DiscoverX)) EUB0000045b RET.
Assay [2] has as its system Proto-oncogene tyrosine-protein kinase receptor Ret (Homo sapiens), P07949 [V804M]. The assay is described as §1.
Assay [3] deals with Proto-oncogene tyrosine-protein kinase receptor Ret (Homo sapiens), P07949 [V804L]. The assay is described as §1.
In assay [4] the test system is Proto-oncogene tyrosine-protein kinase receptor Ret (Homo sapiens), P07949 [M918T]. Described as §1.
For the next assay, the target named is Insulin receptor (Homo sapiens, UniProt P06213). The experiment in a line: Selectivity interaction (Kinase panel (literature)) EUB0001199aCl INSR. As to conditions: at 1 µM.
For assay [5], the target named is T1, Dual specificity mitogen-activated protein kinase kinase 7 (Homo sapiens) (UniProt O14733).
T1 sequence (whole entry): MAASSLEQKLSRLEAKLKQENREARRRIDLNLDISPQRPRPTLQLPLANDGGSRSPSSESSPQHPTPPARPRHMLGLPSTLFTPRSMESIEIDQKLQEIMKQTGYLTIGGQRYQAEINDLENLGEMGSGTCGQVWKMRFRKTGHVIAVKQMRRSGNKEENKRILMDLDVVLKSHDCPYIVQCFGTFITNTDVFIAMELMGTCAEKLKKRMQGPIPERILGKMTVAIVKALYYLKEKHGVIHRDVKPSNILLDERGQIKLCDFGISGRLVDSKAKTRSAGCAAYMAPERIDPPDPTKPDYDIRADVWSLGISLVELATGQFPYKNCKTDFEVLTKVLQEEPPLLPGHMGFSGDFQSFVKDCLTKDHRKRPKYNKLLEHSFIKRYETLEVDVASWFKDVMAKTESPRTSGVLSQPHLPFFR
Put plainly: Selectivity interaction (Ambit KINOMEscan and KiNATiv profiling in Jurkat cells) EUB0000090b MAP2K7. Format: cell-based. Particulars: at 1 µM.

The target in assay [6] is T2, Mitogen-activated protein kinase kinase kinase 5 (Homo sapiens) (UniProt Q99683).
T2 sequence (whole entry): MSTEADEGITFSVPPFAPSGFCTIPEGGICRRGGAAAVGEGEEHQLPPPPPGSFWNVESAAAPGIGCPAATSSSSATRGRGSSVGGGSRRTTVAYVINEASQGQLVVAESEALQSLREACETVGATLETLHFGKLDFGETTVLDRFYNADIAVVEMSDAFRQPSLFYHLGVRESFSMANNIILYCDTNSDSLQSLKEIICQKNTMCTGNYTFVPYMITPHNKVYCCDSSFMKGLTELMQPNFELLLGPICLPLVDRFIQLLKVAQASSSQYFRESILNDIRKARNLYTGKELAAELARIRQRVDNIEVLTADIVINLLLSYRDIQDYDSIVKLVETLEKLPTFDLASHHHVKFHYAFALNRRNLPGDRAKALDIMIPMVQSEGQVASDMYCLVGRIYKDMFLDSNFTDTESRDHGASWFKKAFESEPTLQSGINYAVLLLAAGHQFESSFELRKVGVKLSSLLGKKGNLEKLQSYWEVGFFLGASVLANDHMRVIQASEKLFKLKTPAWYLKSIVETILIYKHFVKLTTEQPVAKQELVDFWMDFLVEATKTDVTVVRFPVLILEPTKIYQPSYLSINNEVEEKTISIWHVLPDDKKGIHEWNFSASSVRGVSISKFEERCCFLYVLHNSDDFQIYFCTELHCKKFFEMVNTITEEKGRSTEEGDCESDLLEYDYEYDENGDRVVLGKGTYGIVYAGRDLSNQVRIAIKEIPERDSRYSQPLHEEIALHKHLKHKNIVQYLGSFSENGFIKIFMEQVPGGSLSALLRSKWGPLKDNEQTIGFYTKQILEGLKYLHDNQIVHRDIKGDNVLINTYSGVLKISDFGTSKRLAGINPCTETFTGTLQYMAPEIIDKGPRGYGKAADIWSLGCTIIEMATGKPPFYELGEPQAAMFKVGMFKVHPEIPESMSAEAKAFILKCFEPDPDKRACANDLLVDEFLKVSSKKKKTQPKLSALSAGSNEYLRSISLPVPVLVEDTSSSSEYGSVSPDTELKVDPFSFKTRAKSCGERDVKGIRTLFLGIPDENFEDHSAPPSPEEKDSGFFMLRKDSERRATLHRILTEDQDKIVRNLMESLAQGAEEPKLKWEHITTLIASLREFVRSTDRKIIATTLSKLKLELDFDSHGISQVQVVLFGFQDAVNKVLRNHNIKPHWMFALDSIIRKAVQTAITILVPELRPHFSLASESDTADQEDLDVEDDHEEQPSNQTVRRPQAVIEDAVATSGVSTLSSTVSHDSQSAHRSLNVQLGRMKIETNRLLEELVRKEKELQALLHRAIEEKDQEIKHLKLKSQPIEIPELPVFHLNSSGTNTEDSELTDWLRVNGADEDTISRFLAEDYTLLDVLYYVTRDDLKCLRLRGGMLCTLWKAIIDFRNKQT
Put plainly: Selectivity interaction (KinomeScan (DiscoverX)) EUB0000090b MAP3K5. Particulars: at 1 µM.

Assay [7] addresses Mitogen-activated protein kinase kinase kinase 14 (Homo sapiens) (UniProt Q99558). Put plainly: Selectivity interaction (KinomeScan (DiscoverX)) EUB0001049a MAP3K14. As to conditions: at 1 µM.
In assay [8] the target is T3, Aurora kinase A (Homo sapiens) (UniProt O14965).
T3 sequence (whole entry): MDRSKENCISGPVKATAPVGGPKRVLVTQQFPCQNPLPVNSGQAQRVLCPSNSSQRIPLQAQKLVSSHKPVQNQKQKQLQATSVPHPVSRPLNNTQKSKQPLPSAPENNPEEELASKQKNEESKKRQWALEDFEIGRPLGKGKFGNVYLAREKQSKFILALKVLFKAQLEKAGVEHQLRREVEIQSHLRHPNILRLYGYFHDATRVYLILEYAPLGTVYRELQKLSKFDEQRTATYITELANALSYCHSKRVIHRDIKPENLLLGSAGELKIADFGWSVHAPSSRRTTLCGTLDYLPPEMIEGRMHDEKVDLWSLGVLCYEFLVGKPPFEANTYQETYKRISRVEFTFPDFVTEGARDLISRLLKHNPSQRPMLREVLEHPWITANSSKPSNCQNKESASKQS
The experiment in a line: Selectivity interaction (Upstate Kinase Profiler service (Millipore)) EUB0000056c STK6. Particulars: at 1 µM.

Assay [9] addresses Protein-tyrosine kinase 6 (Homo sapiens, UniProt Q13882). Put plainly: Selectivity interaction (KinomeScan (DiscoverX)) EUB0000618a PTK6. Particulars: at 10 µM.

Sequence of Proto-oncogene tyrosine-protein kinase receptor Ret (P07949 whole entry): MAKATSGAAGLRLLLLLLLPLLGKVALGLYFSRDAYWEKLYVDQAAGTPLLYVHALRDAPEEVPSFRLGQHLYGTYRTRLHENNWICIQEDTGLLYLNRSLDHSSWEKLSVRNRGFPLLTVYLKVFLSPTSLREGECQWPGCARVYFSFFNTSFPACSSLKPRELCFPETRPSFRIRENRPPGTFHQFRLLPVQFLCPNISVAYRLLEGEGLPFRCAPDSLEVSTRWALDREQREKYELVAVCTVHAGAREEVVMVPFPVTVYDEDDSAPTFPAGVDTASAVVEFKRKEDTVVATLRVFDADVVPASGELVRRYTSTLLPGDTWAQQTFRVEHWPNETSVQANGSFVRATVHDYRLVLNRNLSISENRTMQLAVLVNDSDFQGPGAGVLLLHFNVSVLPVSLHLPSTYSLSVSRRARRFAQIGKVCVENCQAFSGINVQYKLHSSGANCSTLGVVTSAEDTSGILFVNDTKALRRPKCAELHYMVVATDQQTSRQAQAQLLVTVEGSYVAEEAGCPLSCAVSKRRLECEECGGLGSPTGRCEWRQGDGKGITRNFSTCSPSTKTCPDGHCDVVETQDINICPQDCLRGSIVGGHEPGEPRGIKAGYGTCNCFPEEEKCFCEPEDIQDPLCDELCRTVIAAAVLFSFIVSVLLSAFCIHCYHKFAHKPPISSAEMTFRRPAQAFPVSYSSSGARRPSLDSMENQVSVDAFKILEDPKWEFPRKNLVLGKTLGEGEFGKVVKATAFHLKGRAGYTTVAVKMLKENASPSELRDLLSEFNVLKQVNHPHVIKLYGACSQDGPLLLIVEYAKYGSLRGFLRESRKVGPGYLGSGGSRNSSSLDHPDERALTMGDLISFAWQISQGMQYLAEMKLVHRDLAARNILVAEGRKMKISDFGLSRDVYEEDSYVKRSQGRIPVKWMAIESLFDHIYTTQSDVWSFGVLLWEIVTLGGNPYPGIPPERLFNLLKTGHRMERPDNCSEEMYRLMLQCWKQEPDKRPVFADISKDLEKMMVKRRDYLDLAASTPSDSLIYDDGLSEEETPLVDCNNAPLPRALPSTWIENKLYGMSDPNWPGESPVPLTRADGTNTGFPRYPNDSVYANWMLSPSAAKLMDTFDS
Sequence of Proto-oncogene tyrosine-protein kinase receptor Ret (Homo sapiens), P07949 [M918T] (P07949 whole entry M918T): as the sequence (P07949 whole entry) above, with M918T counted along it
Sequence of Proto-oncogene tyrosine-protein kinase receptor Ret (Homo sapiens), P07949 [V804L] (P07949 whole entry V804L): as the sequence (P07949 whole entry) above, with V804L counted along it
Sequence of Proto-oncogene tyrosine-protein kinase receptor Ret (Homo sapiens), P07949 [V804M] (P07949 whole entry V804M): as the sequence (P07949 whole entry) above, with V804M counted along it
Sequence of Insulin receptor (P06213 28-758 limits assumed): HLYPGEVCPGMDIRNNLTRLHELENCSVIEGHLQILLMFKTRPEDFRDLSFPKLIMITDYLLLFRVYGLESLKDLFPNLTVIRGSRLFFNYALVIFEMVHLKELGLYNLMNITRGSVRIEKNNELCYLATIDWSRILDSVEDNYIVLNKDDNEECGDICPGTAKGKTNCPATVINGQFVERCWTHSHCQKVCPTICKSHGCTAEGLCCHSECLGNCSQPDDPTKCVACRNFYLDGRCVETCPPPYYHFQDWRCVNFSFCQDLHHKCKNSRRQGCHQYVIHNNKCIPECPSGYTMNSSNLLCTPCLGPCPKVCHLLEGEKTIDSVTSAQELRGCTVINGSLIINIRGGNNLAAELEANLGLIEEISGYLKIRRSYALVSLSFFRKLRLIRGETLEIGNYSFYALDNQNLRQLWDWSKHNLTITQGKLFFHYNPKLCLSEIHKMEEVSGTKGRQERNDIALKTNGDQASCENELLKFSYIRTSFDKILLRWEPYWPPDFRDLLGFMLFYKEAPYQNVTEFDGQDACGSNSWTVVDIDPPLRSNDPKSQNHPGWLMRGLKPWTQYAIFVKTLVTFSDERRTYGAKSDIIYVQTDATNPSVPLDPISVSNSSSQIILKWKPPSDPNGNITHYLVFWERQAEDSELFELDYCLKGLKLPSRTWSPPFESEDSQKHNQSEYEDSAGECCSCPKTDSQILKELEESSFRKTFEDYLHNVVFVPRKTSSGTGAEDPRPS
Sequence of Insulin receptor (P06213 763-1382 limits assumed): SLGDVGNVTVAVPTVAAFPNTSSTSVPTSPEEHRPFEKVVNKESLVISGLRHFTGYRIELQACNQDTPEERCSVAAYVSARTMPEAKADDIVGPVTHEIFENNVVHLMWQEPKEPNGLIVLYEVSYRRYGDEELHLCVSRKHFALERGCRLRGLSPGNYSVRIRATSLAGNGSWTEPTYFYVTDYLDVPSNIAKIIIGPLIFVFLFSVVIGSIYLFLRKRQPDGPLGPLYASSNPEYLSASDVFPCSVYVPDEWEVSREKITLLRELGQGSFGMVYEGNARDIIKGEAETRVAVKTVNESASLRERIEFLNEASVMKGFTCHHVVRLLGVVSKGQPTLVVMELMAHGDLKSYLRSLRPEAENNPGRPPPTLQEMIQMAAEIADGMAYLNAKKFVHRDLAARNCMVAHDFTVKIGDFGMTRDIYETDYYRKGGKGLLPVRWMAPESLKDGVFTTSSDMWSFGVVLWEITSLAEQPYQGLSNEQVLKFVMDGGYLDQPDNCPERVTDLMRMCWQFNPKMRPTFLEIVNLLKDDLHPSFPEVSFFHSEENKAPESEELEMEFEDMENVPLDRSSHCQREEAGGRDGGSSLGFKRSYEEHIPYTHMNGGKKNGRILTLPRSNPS
Sequence of Mitogen-activated protein kinase kinase kinase 14 (Homo sapiens) (Q99558 whole entry, looked up): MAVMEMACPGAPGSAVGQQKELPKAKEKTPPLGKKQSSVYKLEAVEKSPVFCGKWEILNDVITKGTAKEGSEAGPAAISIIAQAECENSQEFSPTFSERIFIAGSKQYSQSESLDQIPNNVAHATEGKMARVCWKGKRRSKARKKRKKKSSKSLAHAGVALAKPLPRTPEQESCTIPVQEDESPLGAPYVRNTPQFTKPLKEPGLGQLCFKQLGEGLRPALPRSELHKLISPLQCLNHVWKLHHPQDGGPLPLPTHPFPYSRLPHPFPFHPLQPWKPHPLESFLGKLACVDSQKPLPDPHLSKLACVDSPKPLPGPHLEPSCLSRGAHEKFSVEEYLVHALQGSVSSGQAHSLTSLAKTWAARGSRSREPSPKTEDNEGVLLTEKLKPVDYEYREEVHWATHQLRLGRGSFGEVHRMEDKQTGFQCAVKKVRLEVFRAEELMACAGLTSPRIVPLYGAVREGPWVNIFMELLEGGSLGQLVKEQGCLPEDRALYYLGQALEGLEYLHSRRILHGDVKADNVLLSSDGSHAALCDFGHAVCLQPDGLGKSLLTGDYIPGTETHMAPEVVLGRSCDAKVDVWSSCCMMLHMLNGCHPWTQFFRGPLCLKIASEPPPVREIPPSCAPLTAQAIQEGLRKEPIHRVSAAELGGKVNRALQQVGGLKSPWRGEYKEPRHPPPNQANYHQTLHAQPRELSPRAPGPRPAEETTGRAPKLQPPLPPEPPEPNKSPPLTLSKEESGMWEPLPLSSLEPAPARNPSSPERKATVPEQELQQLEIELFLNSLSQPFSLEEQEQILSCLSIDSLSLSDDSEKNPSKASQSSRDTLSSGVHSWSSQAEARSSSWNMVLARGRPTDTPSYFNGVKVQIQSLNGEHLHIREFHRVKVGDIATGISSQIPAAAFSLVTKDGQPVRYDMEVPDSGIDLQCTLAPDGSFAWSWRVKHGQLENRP
Sequence of Protein-tyrosine kinase 6 (Q13882 whole entry, looked up): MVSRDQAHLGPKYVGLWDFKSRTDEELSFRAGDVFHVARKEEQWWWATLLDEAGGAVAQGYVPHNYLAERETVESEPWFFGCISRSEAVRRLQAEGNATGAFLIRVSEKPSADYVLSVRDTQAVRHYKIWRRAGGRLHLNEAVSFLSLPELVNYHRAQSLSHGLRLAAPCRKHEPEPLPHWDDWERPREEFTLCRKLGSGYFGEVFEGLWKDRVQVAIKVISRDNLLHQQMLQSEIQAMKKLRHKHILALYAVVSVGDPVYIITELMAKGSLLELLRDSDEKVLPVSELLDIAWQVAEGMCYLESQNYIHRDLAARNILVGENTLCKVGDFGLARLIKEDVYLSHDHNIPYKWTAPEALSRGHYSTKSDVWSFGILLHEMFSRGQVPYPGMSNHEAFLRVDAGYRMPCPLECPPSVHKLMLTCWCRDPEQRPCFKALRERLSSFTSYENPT

With `C=CC(=O)Nc1cc(-n2c(=O)ccc3cnc4ccc(-c5ccc(NS(C)(=O)=O)cc5)cc4c32)ccc1C`, the % of control in assay [1] (at 1 µM) is 88%; in assay [1] (at 10 µM), 96%; in [2] (at 1 µM) it was 85%; in assay [2] (at 10 µM) it was 100%; in assay [3] (at 1 µM) it was 79%; in [3] (at 10 µM), 100%. For the same molecule, the % of control in assay [4] (at 1 µM) stood at 11%; in [4] (at 10 µM), 74%.

For the molecule `CN1Cc2nccc(-c3cn(C)nc3-c3ccc(F)cc3)c2C1=O`, the % of inhibition on Insulin receptor turned out to be 3%.

As for `CN(C)C/C=C/C(=O)Nc1ccc(C(=O)N2CCCC(Nc3ncc(Cl)c(-c4c[nH]c5ccccc45)n3)C2)cc1` (centres undefined), the % of control in [5] came to 100%; in [6] it was 88%.

Consider `COc1cc(Nc2nc(C)cc(-c3cnn4nc(OC)ccc34)n2)cc(C(F)(F)F)c1`, for which the % of control in [7] worked out at 98%.

`Cc1ccc(-c2ccc3c(ccc4sc5c(c43)NC[C@@H](C)NC5=O)n2)cn1`: the % of inhibition in assay [8] turned out to be 32%.

As to `O[C@H]1CC[C@H](Nc2ncc3nc(Nc4c(F)cc(F)cc4F)n([C@H]4CCOC4)c3n2)CC1`, the % of control in assay [9] was 100%.
